Among the data in PubChem BioAssay (NCI) are TGI values, retold here.

Some test systems named below: DLD-1 colon; M19-MEL melanoma; KM20L2 colon; P388 leukemia; SN12K1 renal; P388/ADR leukemia.
What all share (test): NCI tumour cell line growth inhibition, 48 h

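Each compound was tested at five concentrations against cells in 96-well plates for 48 hours. TGI denotes the concentration required for complete inhibition of growth.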

For `O=C1CCCCCCCCCCC1CN1CCCCC1` (stereo not drawn), the TGI in the assay on DLD-1 colon, in the assay on M19-MEL melanoma and in the assay with KM20L2 colon was > 100 µM throughout.
For `Cc1cc(=O)oc2c(C)c(OCCCOc3ccc4c(C)cc(=O)oc4c3C)ccc12`, the TGI in the assay on DLD-1 colon, with M19-MEL melanoma and with KM20L2 colon was > 100 µM in each case.
In the case of `Cc1c(C(=O)/C=C/c2ccccc2O)c(=O)n(-c2ccccc2)n1C`, the TGI in the assay on DLD-1 colon is 27.9 µM; in the assay on M19-MEL melanoma, 74.6 µM; with KM20L2 colon it was > 100 µM.
Consider `CCCCCCCCCCCCOCCCOP(=O)([O-])OCC[N+](C)(C)C`, for which the TGI in the assay on P388 leukemia was 97.7 µM; in the assay on DLD-1 colon, > 95.8 µM; with SN12K1 renal, > 100 µM; in the assay with M19-MEL melanoma, > 100 µM; in the assay on P388/ADR leukemia, > 100 µM; in the assay on KM20L2 colon it was > 100 µM.
As for `CC(C)(C)C(=O)OC12/C(=N/O)CCCCCC1c1ccccc12` (stereo not drawn), the results for the TGI with DLD-1 colon, in the assay on M19-MEL melanoma and in the assay on KM20L2 colon were 34.6 µM, 30.2 µM and 36.5 µM, respectively.
